The values that follow come from patent US20170362292A1, “S-Alkylated Hepcidin Peptides and Methods of Making and Using Thereof” (priority 2014, published 2017).

One data set deals with T1, human ferroportin-GFP (Homo sapiens, UniProt Q9NP59).
T1 sequence (Q9NP59 1-571): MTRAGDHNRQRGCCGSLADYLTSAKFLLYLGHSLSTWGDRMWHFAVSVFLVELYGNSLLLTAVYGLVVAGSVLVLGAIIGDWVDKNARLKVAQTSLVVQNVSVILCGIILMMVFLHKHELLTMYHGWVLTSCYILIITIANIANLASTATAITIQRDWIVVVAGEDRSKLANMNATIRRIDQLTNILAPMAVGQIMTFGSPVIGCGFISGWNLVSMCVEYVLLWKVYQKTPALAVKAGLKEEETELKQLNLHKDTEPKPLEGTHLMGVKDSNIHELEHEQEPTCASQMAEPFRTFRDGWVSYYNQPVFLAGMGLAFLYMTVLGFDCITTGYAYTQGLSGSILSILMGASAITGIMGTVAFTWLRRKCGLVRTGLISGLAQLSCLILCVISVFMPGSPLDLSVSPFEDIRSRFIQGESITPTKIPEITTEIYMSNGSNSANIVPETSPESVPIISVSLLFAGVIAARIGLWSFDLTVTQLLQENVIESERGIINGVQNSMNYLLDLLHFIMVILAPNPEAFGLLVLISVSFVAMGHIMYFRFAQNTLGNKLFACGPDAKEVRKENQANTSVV
Briefly: cellular assay based on Fpn degradation (HEK293:TREX-Fpn-GFP cells, flow cytometry). The class given is cell-based. On the procedure: The S-alkylated hepcidin peptides were tested in vitro using a previously described cellular assay based on Fpn degradation. See e.g., Nemeth, et al. (2006) Blood 107: 328. Briefly, HEK293:TREX-Fpn-GFP, a cell line stably transfected with the human ferroportin-GFP construct under the control of doxycycline-inducible promoter, was plated on poly-D-lysine-coated plates in the presence of 20 μM FAC. Fpn expression was induced with 500 ng/mL doxycycline treatment for 24 hours. Then, doxycycline was washed off, and cells were treated with peptides for 24 hours. Cells were then trypsinized and resuspended at 1×10^6 cells/mL, and the intensity of green fluorescence was analyzed by flow cytometry using FAC Scan (fluorescence activated cell scanner) Analytic Flow Cytometer (Becton Dickinson, San Jose, Calif.) with CellQuest version 3.3 software. Cells not induced with doxycycline to express Fpn-GFP were used to establish a gate to exclude background fluorescence. Cells induced with doxycycline, but not treated with any peptides, were used as the positive control. Each peptide treatment was repeated independently 3 to 6 times. […] Hydrophobicity may also play a role, as activity increases in the carboxy-esters-substituent(s) order: —CH3<—C2H5<—C4H9 (PR73 SC<PR73 SB<PR73 SA).
In vitro activity may be measured by the dose-dependent loss of fluorescence of cells engineered to display ferroportin fused to green fluorescent protein as in Nemeth et al. (2006) Blood 107:328-33.

A short description of data set [1]: serum iron in C57BL/6 mice after intraperitoneal peptide injection. The conditions noted are these: 50-100 nmoles/mouse, vs PBS-injected mice. The class given is in vivo. On the procedure: Based on in vitro results, PR73SH was selected as a suitable candidate for animal studies, which were carried out as previously described. See Preza, et al. (2011) J. Clin. Invest. 121:4880; Ramos, et al. (2012) Blood 120:3829; and Nemeth, et al. (2006) Blood 107:328. Animal studies were approved by the Animal Research Committee at UCLA. Briefly, C57BL/6 mice were obtained from The Jackson Laboratory (Bar Harbor, Me.) and were maintained on NIH 31 rodent diet (iron content 336 mg/kg; Harlan Teklad, Indianapolis, […]). Mice were injected intraperitoneally either with 100 μL PBS (control) or with 50 or 100 nmoles peptide in 100 μL PBS. Mice were killed 6, 24, and 48 hours later, blood was collected by cardiac puncture, and serum was separated using Microtainer tubes (Becton Dickinson, Franklin Lakes, N.J.). Serum iron was determined by using a colorimetric assay (Diagnostic Chemicals, Oxford, Conn.), which was modified for the microplate format so that 50 μL serum was used per measurement. See Nemeth, et al. (2004) J. Clin. Invest. 113(9): 1271-1276. The results were expressed as the percentage of decrease in serum iron when compared with the average value of serum iron levels in PBS-injected mice.
In vivo activity of PR73SH and PR73 was compared by assaying serum iron levels at 3 time points: (6, 24, and 48 hours) and concentrations that were previously shown to be sufficient for PR73 to exert potent bioactivity (50-100 nmoles/mouse).

Data set [2] is described as follows: storage stability in DMSO (LC/MS/MS). The class given is physicochemical. The conditions noted are these: 10 mM solution, room temperature, 30 days. From the text:
Thus, the present invention also provides storage stable compositions comprising one or more S-alkylated hepcidin peptides.

The mark [3] stands for this setting: peptide treatment 24 hours, loss of GFP fluorescence relative to Hep25, read-out: EC50 [nM] TREX-hFpn-GFP cells.

Like-named read-outs stand apart in the source and are kept apart here.

`CCCCCCCCCCCCCCCCNC(=O)CN(CC(N)=O)C(=O)CCCCCNC(=O)C[C@H](Cc1ccccc1)NC(=O)[C@H](CCCNC(=N)N)NC(=O)[C@H](CSC(=CC(=O)OC)C(=O)OC)NC(=O)[C@H](CCCNC(=N)N)NC(=O)C[C@@H]1CCCN1C(=O)[C@@H](NC(=O)[C@H](Cc1c[nH]cn1)NC(=O)[C@@H](NC(=O)CNCC(=O)O)[C@@H](C)O)C(c1ccccc1)c1ccccc1` [PR73SC]: at human ferroportin-GFP (setting [3]), the DC50 was determined as 12.6 ± 1.8 nM.

For `CCCCCCCCCCCCCCCCNC(=O)CN(CC(N)=O)C(=O)CCCCCNC(=O)C[C@H](Cc1ccccc1)NC(=O)[C@H](CCCNC(=N)N)NC(=O)[C@H](CSC(=CS(=O)(=O)C(C)(C)C)S(=O)(=O)C(C)(C)C)NC(=O)[C@H](CCCNC(=N)N)NC(=O)C[C@@H]1CCCN1C(=O)[C@@H](NC(=O)[C@H](Cc1c[nH]cn1)NC(=O)[C@@H](NC(=O)CNCC(=O)O)[C@@H](C)O)C(c1ccccc1)c1ccccc1` [PR73SF], the DC50 at human ferroportin-GFP (setting [3]) is 10 ± 3.4 nM.

By EC50 is commonly meant the concentration that produces a half-maximal response. For the compound `CCCCCCCCCCCCCCCCNC(=O)CN(CC(N)=O)C(=O)CCCCCNC(=O)C[C@H](Cc1ccccc1)NC(=O)[C@H](CCCNC(=N)N)NC(=O)[C@H](CS)NC(=O)[C@H](CCCNC(=N)N)NC(=O)C[C@@H]1CCCN1C(=O)[C@@H](NC(=O)[C@H](Cc1c[nH]cn1)NC(=O)[C@@H](NC(=O)CNCC(=O)O)[C@@H](C)O)C(c1ccccc1)c1ccccc1` [PR73, reference compound], the EC50 on human ferroportin-GFP (setting [3]) was 4.2 ± 0.3 nM. Moreover, the serum iron entry in data set [1] (6 hour time point) and in data set [1] (24 hour time point) was “decreased serum iron” in each case.

As to `CCCCCCCCCCCCCCCCNC(=O)CN(CC(N)=O)C(=O)CCCCCNC(=O)C[C@H](Cc1ccccc1)NC(=O)[C@H](CCCNC(=N)N)NC(=O)[C@H](CSC=CC(=O)O)NC(=O)[C@H](CCCNC(=N)N)NC(=O)C[C@@H]1CCCN1C(=O)[C@@H](NC(=O)[C@H](Cc1c[nH]cn1)NC(=O)[C@@H](NC(=O)CNCC(=O)O)[C@@H](C)O)C(c1ccccc1)c1ccccc1` [PR73SD], the DC50 on human ferroportin-GFP (setting [3]) came to 218 ± 13.4 nM.

As for `CCCCCCCCCCCCCCCCNC(=O)CN(CC(N)=O)C(=O)CCCCCNC(=O)C[C@H](Cc1ccccc1)NC(=O)[C@H](CCCNC(=N)N)NC(=O)[C@H](CSC(=CC(N)=O)C(N)=O)NC(=O)[C@H](CCCNC(=N)N)NC(=O)C[C@@H]1CCCN1C(=O)[C@@H](NC(=O)[C@H](Cc1c[nH]cn1)NC(=O)[C@@H](NC(=O)CNCC(=O)O)[C@@H](C)O)C(c1ccccc1)c1ccccc1` [PR73SG], the DC50 on human ferroportin-GFP (setting [3]) amounted to 8.4 ± 2.5 nM.

As for `CCCCCCCCCCCCCCCCNC(=O)CN(CC(N)=O)C(=O)CCCCCNC(=O)C[C@H](Cc1ccccc1)NC(=O)[C@H](CCCNC(=N)N)NC(=O)[C@H](CSC(=CC(=O)OCC)C(=O)OCC)NC(=O)[C@H](CCCNC(=N)N)NC(=O)C[C@@H]1CCCN1C(=O)[C@@H](NC(=O)[C@H](Cc1c[nH]cn1)NC(=O)[C@@H](NC(=O)CNCC(=O)O)[C@@H](C)O)C(c1ccccc1)c1ccccc1` [PR73SB], the DC50 at human ferroportin-GFP (setting [3]) was determined as 10.4 ± 1.2 nM.

In the case of `CCCCCCCCCCCCCCCCNC(=O)CN(CC(N)=O)C(=O)CCCCCNC(=O)C[C@H](Cc1ccccc1)NC(=O)[C@H](CCCNC(=N)N)NC(=O)[C@H](CSC(=CP(=O)(OCC)OCC)P(=O)(OCC)OCC)NC(=O)[C@H](CCCNC(=N)N)NC(=O)C[C@@H]1CCCN1C(=O)[C@@H](NC(=O)[C@H](Cc1c[nH]cn1)NC(=O)[C@@H](NC(=O)CNCC(=O)O)[C@@H](C)O)C(c1ccccc1)c1ccccc1` [PR73SH], the DC50 at human ferroportin-GFP (read-out: EC50 [nM] TREX-hFpn-GFP cells, peptide treatment 24 hours, loss of GFP fluorescence relative to Hep25) is 1.1 ± 0.1 nM. Moreover, the serum iron result in data set [1] (6 hour time point) and in data set [1] (24 hour time point) was “decreased serum iron” in each case. In data set [2], this compound returned a stability of 99.5±0.5%.
